Assay [1] addresses T1, M1 muscarinic receptor (Homo sapiens, UniProt P11229).
T1 construct: expressed in transfected cells; host or cells: CHO (M1-CHO)
T1 sequence (P11229 1-460): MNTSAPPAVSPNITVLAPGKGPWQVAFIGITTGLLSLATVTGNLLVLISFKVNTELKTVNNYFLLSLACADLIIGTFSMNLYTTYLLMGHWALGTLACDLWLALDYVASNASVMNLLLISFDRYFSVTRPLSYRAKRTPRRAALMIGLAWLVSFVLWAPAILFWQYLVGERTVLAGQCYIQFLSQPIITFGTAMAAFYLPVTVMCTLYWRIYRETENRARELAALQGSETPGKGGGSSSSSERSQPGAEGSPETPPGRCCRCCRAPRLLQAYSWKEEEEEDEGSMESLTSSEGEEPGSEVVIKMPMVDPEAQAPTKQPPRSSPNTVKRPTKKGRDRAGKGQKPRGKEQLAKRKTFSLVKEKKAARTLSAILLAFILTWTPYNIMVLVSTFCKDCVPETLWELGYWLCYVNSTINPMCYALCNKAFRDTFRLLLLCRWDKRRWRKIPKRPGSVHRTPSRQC
The assay can be described thus: Functional mobilization of intracellular calcium (FLIPR), M1-CHO cells. Format: cell-based. Conditions: for Emax: 100% efficacy is the maximum response obtained using Carbachol as a control; for M1 Activity: M1-CHO cells, FLIPR calcium mobilization. In a few lines: (§1)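 CHO cells expressing M1 or M4, loaded with Fluo-3 AM or Calcium 3 dye with 1 mM probenecid, 0.5% DMSO final. Agonist mode: compound added directly; antagonist mode: 15 min pre-incubation (or co-application) before carbachol at EC80. Fluorescence recorded 60 s on FLIPR.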
(In general: A change in cytosolic calcium serves as a functional read-out for many receptors and channels.)

The target in assay [2] is T2, M4 muscarinic receptor (Homo sapiens, UniProt P08173).
T2 construct: expressed in transfected cells; host or cells: CHO (M4-CHO)
T2 sequence (P08173 1-479): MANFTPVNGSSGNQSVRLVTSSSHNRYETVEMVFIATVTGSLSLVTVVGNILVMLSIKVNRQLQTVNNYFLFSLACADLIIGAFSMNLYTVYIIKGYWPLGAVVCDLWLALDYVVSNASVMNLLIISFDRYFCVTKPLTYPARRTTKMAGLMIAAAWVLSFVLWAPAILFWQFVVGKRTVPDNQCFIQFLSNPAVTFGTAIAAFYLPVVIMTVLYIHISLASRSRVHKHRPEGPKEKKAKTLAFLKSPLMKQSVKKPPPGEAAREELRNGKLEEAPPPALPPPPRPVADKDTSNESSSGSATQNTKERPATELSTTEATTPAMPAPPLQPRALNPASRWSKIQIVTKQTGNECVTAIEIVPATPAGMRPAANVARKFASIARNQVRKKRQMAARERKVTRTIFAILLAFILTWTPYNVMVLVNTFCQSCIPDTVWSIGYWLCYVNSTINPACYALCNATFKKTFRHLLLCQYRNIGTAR
The assay can be described thus: Functional mobilization of intracellular calcium (FLIPR), M4-CHO cells. Format: cell-based. Conditions: for Emax: 100% efficacy is the maximum response obtained using Carbachol as a control; for M4 Activity: M4-CHO cells, FLIPR calcium mobilization. Summed up:
as §1

The structures appear in SMILES notation. Where a name gives a salt, the structure may show the parent alone.

By Emax is commonly meant the size of the effect at its maximum, as opposed to the concentration needed. With `CCOC(=O)N1C2CCC1CC(N1CCC3(CC1)CN(C(=O)c1snnc1C)Cc1ccccc13)C2` (centres unmarked) [compound 179], in assay [1], the Emax fell in the range of 25 to 100% and the “M1 Activity” value is recorded as “+++ (activity was measured to be less than 1.0 μM)”. Besides, in assay [2], the Emax is 25 to 100% and the “M4 Activity” value is reported as “+++ (activity was measured to be less than 1.0 μM)”.

Take `Cc1ccc2c(c1)C1(CCN(C3CCOCC3)CC1)OC2=O` [compound 180]: in assay [1], the Emax is 25 to 100% and the “M1 Activity” value is listed as “+ (activity was measured to be greater than 5.0 μM)”. For the same compound, in assay [2], the Emax lay within 25 to 100% and the “M4 Activity” value is reported as “+ (activity was measured to be greater than 5.0 μM)”.

Turning to `CS(=O)(=O)N1Cc2ccccc2C2(CCN(C3CC4CCC(C3)N4C(=O)O[C@H]3CCOC3)CC2)C1` (some centres unmarked) [compound 181], in assay [1], the Emax lay in the range of 25 to 100% and the “M1 Activity” value is recorded as “+++ (activity was measured to be less than 1.0 μM)”. Also, in assay [2], the Emax lay within 25 to 100% and the “M4 Activity” value is listed as “+++ (activity was measured to be less than 1.0 μM)”.

Consider `CC(=O)N1Cc2ccccc2C2(CCN(CC3CCOCC3)CC2)C1` [compound 182], for which, in assay [1], the Emax was less than 25% and the “M1 Activity” value is “+ (activity was measured to be greater than 5.0 μM)”. In assay [2], the Emax is less than 25% and the “M4 Activity” value was “+ (activity was measured to be greater than 5.0 μM)”.

Turning to `COCCOC(=O)N1C2CCC1CC(N1CCC3(CC1)CN(C(=O)OC)Cc1ccccc13)C2` (centres unmarked) [compound 183], in assay [1], the Emax fell in the range of 25 to 100% and the “M1 Activity” value was “+++ (activity was measured to be less than 1.0 μM)”. In addition, in assay [2], the Emax lay in the range of 25 to 100% and the “M4 Activity” value is “+++ (activity was measured to be less than 1.0 μM)”.

With `CCCC(=O)N1Cc2ccccc2C2(CCN(CC3CCN(C(=O)OCC)CC3)CC2)C1` [compound 184], in assay [1], the Emax was 25 to 100% and the “M1 Activity” value was “+++ (activity was measured to be less than 1.0 μM)”. In assay [2], the Emax is 25 to 100% and the “M4 Activity” value is on record as “+++ (activity was measured to be less than 1.0 μM)”.

On to `CCCC(=O)N1Cc2ccccc2C2(CCN(C3CCN(C(=O)OCC)CC3)CC2)C1` [compound 185], for which, in assay [1], the Emax is 25 to 100% and the “M1 Activity” value is “+++ (activity was measured to be less than 1.0 μM)”. In assay [2], the Emax lay within 25 to 100% and the “M4 Activity” value was “+++ (activity was measured to be less than 1.0 μM)”.

Turning to `CCOC(=O)N1CCC(N2CCC3(CC2)CN(C(=O)OCC(C)C)Cc2ccccc23)CC1` [compound 186], in assay [1], the Emax lay within 25 to 100% and the “M1 Activity” value is “+++ (activity was measured to be less than 1.0 μM)”. Moreover, in assay [2], the Emax fell in the range of 25 to 100% and the “M4 Activity” value is “+++ (activity was measured to be less than 1.0 μM)”.

Turning to `CCC(=O)CN1CCC2(CC1)CN(C(C)=O)Cc1ccccc12` [compound 187], in assay [1], the Emax is less than 25% and the “M1 Activity” value is “+ (activity was measured to be greater than 5.0 μM)”. In addition, in assay [2], the Emax was less than 25% and the “M4 Activity” value is “+ (activity was measured to be greater than 5.0 μM)”.

On to `CC(=O)Oc1cccc(CN2CCC3(CC2)CN(C(C)=O)Cc2ccccc23)c1` [compound 188], for which, in assay [1], the Emax was less than 25% and the “M1 Activity” value is “+ (activity was measured to be greater than 5.0 μM)”. Further, in assay [2], the Emax was less than 25% and the “M4 Activity” value is reported as “+ (activity was measured to be greater than 5.0 μM)”.

With `CCCOC(=O)N1C2CCC1CC(N1CCC3(CC1)CN(C(=O)OC1CCC1)Cc1ccccc13)C2` (centres unmarked) [compound 189], in assay [1], the Emax was in the range of 25 to 100% and the “M1 Activity” value is “+++ (activity was measured to be less than 1.0 μM)”. Further, in assay [2], the Emax was in the range of 25 to 100% and the “M4 Activity” value is given as “+++ (activity was measured to be less than 1.0 μM)”.

Regarding `CCOC(=O)N1C2CCC1CC(N1CCC3(CC1)CN(C(=O)C(O)(CC)CC)Cc1ccccc13)C2` (centres unmarked) [compound 190], in assay [1], the Emax fell in the range of 25 to 100% and the “M1 Activity” value is reported as “+++ (activity was measured to be less than 1.0 μM)”. Also, in assay [2], the Emax is 25 to 100% and the “M4 Activity” value was “+++ (activity was measured to be less than 1.0 μM)”.

As to `CC(=O)N1Cc2ccccc2C2(CCN(Cc3cc4ccccc4s3)CC2)C1` [compound 191], in assay [1], the Emax is less than 25% and the “M1 Activity” value is “+ (activity was measured to be greater than 5.0 μM)”. In assay [2], the Emax is less than 25% and the “M4 Activity” value is recorded as “+ (activity was measured to be greater than 5.0 μM)”.

`COc1cccc(OC)c1CN1CCC2(CC1)CN(C(C)=O)Cc1ccccc12` [compound 192]: in assay [1], the Emax was in the range of 25 to 100% and the “M1 Activity” value is “+ (activity was measured to be greater than 5.0 μM)”. In assay [2], the Emax was in the range of 25 to 100% and the “M4 Activity” value is recorded as “+ (activity was measured to be greater than 5.0 μM)”.

For `CCOC(=O)N1C2CCC1CC(N1CCC3(CC1)CN(C(=O)C1CCCCC1)Cc1ccccc13)C2` (centres unmarked) [compound 193], in assay [1], the Emax was in the range of 25 to 100% and the “M1 Activity” value is “+++ (activity was measured to be less than 1.0 μM)”. In assay [2], the Emax was less than 25% and the “M4 Activity” value was “+++ (activity was measured to be less than 1.0 μM)”.

In the case of `O=C(OC1CCC1)N1Cc2ccccc2C2(CCN(C3CC4CCC(C3)N4C(=O)OC3CCC3)CC2)C1` (centres unmarked) [compound 194], in assay [1], the Emax lay within 25 to 100% and the “M1 Activity” value is “+++ (activity was measured to be less than 1.0 μM)”. In assay [2], the Emax lay within 25 to 100% and the “M4 Activity” value is “+++ (activity was measured to be less than 1.0 μM)”.

On to `CC(C)OC(=O)N1Cc2ccccc2C2(CCN(C3CC4CCC(C3)N4C(=O)O[C@@H]3CCOC3)CC2)C1` (some centres unmarked) [compound 195], for which, in assay [1], the Emax fell in the range of 25 to 100% and the “M1 Activity” value is “+++ (activity was measured to be less than 1.0 μM)”. In addition, in assay [2], the Emax fell in the range of 25 to 100% and the “M4 Activity” value is listed as “+++ (activity was measured to be less than 1.0 μM)”.

As to `CCON=C1CCC(N2CCC3(CC2)CN(C(C)=O)Cc2ccccc23)CC1` (centres unmarked) [compound 196, 1-(1′-(4-(ethoxyimino)cyclohexyl)-1H-spiro[isoquinoline-4,4′-piperidine]-2(3H)-yl)ethanone], in assay [1], the Emax lay in the range of 25 to 100% and the “M1 Activity” value was “+++ (activity was measured to be less than 1.0 μM)”. In assay [2], the Emax was 25 to 100% and the “M4 Activity” value is recorded as “+++ (activity was measured to be less than 1.0 μM)”.

For `CCOC(=O)N1C2CCC1CC(N1CCC3(CC1)CN(C(C)=O)Cc1ccccc13)C2` (centres unmarked) [compound 197, ethyl 3-(2-acetyl-2,3-dihydro-1H-spiro[isoquinoline-4,4′-piperidine]-1′-yl)-8-azabicyclo[3.2.1]octane-8-carboxylate], in assay [1], the Emax lay within 25 to 100% and the “M1 Activity” value is “+++ (activity was measured to be less than 1.0 μM)”. Moreover, in assay [2], the Emax was 25 to 100% and the “M4 Activity” value is recorded as “+++ (activity was measured to be less than 1.0 μM)”.

Consider `CCOC(=O)N1CCC(CN2CCC3(CC2)CN(C(C)=O)Cc2ccccc23)CC1` [compound 198, Ethyl 4-((2-acetyl-2,3-dihydro-1H-spiro[isoquinoline-4,4′-piperidine]-1′-yl)methyl)piperidine-1-carboxylate hydrochloride], for which, in assay [1], the Emax was in the range of 25 to 100% and the “M1 Activity” value is “+++ (activity was measured to be less than 1.0 μM)”. Further, in assay [2], the Emax lay within 25 to 100% and the “M4 Activity” value is listed as “+++ (activity was measured to be less than 1.0 μM)”.

On to `CC(=O)N1Cc2ccccc2C2(CCN(Cc3ccccc3F)CC2)C1` [compound 199], for which, in assay [1], the Emax is less than 25% and the “M1 Activity” value is given as “+ (activity was measured to be greater than 5.0 μM)”. In assay [2], the Emax fell in the range of 25 to 100% and the “M4 Activity” value is listed as “+ (activity was measured to be greater than 5.0 μM)”.

As for `CCOC(=O)N1C2CCC1CC(N1CCC3(CC1)CN(S(=O)(=O)c1sc(NC(C)=O)nc1C)Cc1ccccc13)C2` (centres unmarked) [compound 200], in assay [1], the Emax fell in the range of 25 to 100% and the “M1 Activity” value was “+++ (activity was measured to be less than 1.0 μM)”. In assay [2], the Emax fell in the range of 25 to 100% and the “M4 Activity” value was “+++ (activity was measured to be less than 1.0 μM)”.

Consider `CCOC(=O)N1C2CCC1CC(N1CCC3(CC1)CN(S(C)(=O)=O)Cc1ccccc13)C2` (centres unmarked) [compound 201], for which, in assay [1], the Emax is 25 to 100% and the “M1 Activity” value is reported as “+++ (activity was measured to be less than 1.0 μM)”. In addition, in assay [2], the Emax fell in the range of 25 to 100% and the “M4 Activity” value is recorded as “+++ (activity was measured to be less than 1.0 μM)”.

These data come from US7863449B2, “Modulators of muscarinic receptors” (Vertex Pharmaceuticals Incorporated, priority 2004, dated 2011).
